The text below walks through data of patent US11919901B2 (Syndax Pharmaceuticals, Inc., priority 2021, dated 2024).

pEC50, pIC50, pKi: −log10 of the molar value.

In series [1] the target is hERG (Homo sapiens (Human), UniProt Q12809). Description: Patch clamp assay (hERG tail currents, whole-cell). The class given is cell-based. The conditions noted are these: hERG transfected HEK 293 cells; for hERG % Remaining 30 μM: 30 μM compound; for hERG % Remaining 3 μM: 3 μM compound; for hERG % Remaining 10 μM: 10 μM compound; for hERG % Remaining 100 μM: 100 μM compound. A general note: Patch clamp records ionic current or voltage across a cell membrane.
Description: The 35 mm culture dishes upon which cells were seeded at a density allowing single cells to be recorded were placed on the dish holder of the microscope and continuously perfused (at approximately 1 mL/min) with the bath solution described in section 4.6. All solutions applied to cells including the pipette solution were maintained at room temperature (19° C. to 30° C.). After formation of a Gigaohm seal between the patch electrodes and individual hERG stably transfected HEK 293 cells (pipette resistance range: 2.0 MΩ2 to 7.0 MΩ; seal resistance range: >1GΩ) the cell membrane across the pipette tip was ruptured to assure electrical access to the cell interior (whole-cell patch-configuration). In case the quality of the seal was poor, the process of seal formation was repeated with a different cell and a new pipette. As soon as a stable seal could be established, hERG outward tail currents were measured upon depolarization of the cell membrane to +20 mV for 2s (activation of channels) from a holding potential of −80 mV and upon subsequent repolarization to −40 mV for 3 s. This voltage protocol (as shown below) was run at least 10 times at intervals of 10 s. If current density was judged to be too low for measurement, another cell was recorded.
During wash-in of the test item the voltage protocol indicated above was run continuously again at 10 s intervals until the steady-state level of block was reached.
The IC50 was determined by fitting the dose response curve with a 2-parameter logistic function (amax=100%).

For series [2], the target named is Menin-MLL (Homo sapiens (Human), UniProt O00255). Description: Determination of binding constants (Ki) to Menin-MLL (HTRF). The conditions noted are these: HTRF, 0.25 nM H-FL-Menin, 3.2 nM FITC-MLL-4-43, 24 hr incubation; for pKi: read-out: Menin-MLL Ki HTRF Assay: Ki. A general note: Time-resolved FRET reads energy transfer from a long-lived donor to a nearby acceptor.
Sequence of Menin-MLL (O00255 whole entry): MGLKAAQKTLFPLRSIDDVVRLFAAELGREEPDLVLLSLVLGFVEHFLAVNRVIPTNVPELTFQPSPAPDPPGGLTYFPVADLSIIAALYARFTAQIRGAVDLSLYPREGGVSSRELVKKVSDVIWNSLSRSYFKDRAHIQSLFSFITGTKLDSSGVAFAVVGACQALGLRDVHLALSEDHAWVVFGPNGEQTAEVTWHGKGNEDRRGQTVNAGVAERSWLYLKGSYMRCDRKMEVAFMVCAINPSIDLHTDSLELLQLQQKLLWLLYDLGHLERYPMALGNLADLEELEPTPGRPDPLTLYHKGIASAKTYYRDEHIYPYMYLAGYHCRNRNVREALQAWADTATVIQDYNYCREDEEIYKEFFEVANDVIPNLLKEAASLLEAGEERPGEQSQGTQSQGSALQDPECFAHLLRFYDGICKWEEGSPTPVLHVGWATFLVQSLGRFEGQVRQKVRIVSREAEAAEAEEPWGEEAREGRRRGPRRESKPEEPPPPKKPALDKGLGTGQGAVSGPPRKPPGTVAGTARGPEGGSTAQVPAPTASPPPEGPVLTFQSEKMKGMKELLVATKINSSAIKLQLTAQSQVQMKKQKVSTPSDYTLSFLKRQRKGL

Sequence of hERG (Q12809 whole entry): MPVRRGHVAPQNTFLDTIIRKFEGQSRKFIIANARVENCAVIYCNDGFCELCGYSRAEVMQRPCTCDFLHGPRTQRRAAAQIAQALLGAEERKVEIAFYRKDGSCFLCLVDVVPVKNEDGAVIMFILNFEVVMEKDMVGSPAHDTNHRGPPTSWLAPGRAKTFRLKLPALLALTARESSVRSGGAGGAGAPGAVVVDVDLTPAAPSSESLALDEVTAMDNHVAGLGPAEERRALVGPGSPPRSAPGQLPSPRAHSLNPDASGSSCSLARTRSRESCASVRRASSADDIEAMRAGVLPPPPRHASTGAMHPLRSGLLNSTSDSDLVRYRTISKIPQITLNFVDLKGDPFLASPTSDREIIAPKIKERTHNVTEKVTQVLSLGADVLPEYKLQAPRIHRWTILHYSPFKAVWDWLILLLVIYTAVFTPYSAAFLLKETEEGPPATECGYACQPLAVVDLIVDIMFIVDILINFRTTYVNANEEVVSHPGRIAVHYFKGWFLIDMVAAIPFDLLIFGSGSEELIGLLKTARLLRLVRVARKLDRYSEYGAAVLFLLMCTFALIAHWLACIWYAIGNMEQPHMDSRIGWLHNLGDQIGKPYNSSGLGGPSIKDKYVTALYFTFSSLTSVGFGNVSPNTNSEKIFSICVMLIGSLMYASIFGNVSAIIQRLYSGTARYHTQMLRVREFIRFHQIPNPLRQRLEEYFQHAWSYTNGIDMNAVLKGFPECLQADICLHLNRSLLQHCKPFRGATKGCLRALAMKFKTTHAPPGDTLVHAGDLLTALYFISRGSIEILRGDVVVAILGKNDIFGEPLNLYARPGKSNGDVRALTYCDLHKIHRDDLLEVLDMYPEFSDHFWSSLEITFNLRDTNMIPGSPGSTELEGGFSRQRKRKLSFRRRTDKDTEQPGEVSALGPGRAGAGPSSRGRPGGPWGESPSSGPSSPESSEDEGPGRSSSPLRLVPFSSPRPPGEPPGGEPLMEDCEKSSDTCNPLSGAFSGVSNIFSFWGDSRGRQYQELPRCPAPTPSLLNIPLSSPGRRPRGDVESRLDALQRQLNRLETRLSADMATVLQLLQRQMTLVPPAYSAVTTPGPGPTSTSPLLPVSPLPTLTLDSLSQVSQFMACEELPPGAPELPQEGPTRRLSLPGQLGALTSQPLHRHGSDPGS

As for `CCNS(=O)(=O)N[C@@H]1CC[C@@H](CN2CCC3(CC2)CN(c2ncncc2Oc2ccc(F)cc2C(=O)N2[C@H](C)COC[C@H]2C)C3)OC1` [Compound 125, {[(3R,6S)-6-{[2-(5-{2-[(3R,5R)-3,5-Dimethylmorpholine-4-carbonyl]-4-fluorophenoxy}pyrimidin-4-yl)-2,7-diazaspiro[3.5]nonan-7-yl]methyl}oxan-3-yl]sulfamoyl}(ethyl)amine], in series [1], the “hERG % Remaining 30 μM” value is “+++ (“+++” means ≥66%)”. The pKi – broadly, the negative decadic logarithm of the Ki, by convention in mol/L – in series [2] is greater than 9.00.

In the case of `CC(C)N(C(=O)c1cc(F)ccc1Oc1cncnc1N1CC2(CCN(C[C@@H]3CC[C@@H](NS(=O)(=O)N4CCC4)CO3)CC2)C1)C1COC1` [Compound 248, 2-((4-(7-(((2S,5R)-5-(Azetidine-1-sulfonamido)tetrahydro-2H-pyran-2-yl)methyl)-2,7-diazaspiro[3.5]nonan-2-yl)pyrimidin-5-yl)oxy)-5-fluoro-N-isopropyl-N-(oxetan-3-yl)benzamide], the “hERG % Remaining 30 μM” value in series [1] was “+++ (“+++” means ≥66%)”. In addition, the pKi in series [2] was greater than 9.00.

As for `CCS(=O)(=O)N[C@@H]1CC[C@@H](CN2CCC3(CC2)CN(c2ncncc2Oc2ccc(F)cc2C(=O)N(C(C)C)C(C)C)C3)OC1` [Compound 13, 2-((4-(7-(((2S,5R)-5-(ethylsulfonamido)tetrahydro-2H-pyran-2-yl)methyl)-2,7-diazaspiro[3.5]nonan-2-yl)pyrimidin-5-yl)oxy)-5-fluoro-N,N-diisopropylbenzamide], in series [1] (1 μM compound), the “hERG % Remaining 1 μM” value is on record as “+++ (“+++” means ≥66%)”. Also, in series [1], the “hERG % Remaining 3 μM” value is listed as “+++ (“+++” means ≥66%)”; the “hERG % Remaining 10 μM” value is recorded as “+++ (“+++” means ≥66%)”; the “hERG % Remaining 30 μM” value is “++ (“++” means ≥33% and <66%)”; the “hERG % Remaining 100 μM” value is “++ (“++” means ≥33% and <66%)”. In addition, the negative logarithm of the IC50 (pIC50) (commonly the IC50 on a negative log10 scale, so that one unit is a factor of ten) in series [1] is no more than 4.30. Also, in series [2], the pEC50 (in general, the negative decadic logarithm of the EC50, by convention in mol/L) was greater than 7.30 and the pKi is greater than 9.00.

Turning to `CCNS(=O)(=O)N[C@@H]1CC[C@@H](CN2CCC3(CC2)CN(c2ncncc2Oc2ccc(F)cc2C(=O)N(C(C)C)C(C)C)C3)OC1` [Compound 144, 2-((4-(7-(((2S,5R)-5-((N-Ethylsulfamoyl)amino)tetrahydro-2H-pyran-2-yl)methyl)-2,7-diazaspiro[3.5]nonan-2-yl)pyrimidin-5-yl)oxy)-5-fluoro-N,N-diisopropylbenzamide], the “hERG % Remaining 30 μM” value in series [1] is listed as “+++ (“+++” means ≥66%)”. For the same compound, the negative-log Ki (pKi) in series [2] is greater than 9.00.

Take `CC(C)N(C(=O)c1cc(F)ccc1Oc1cncnc1N1CC2(CCN(C[C@@H]3CC[C@@H](NS(=O)(=O)N(C)C)CO3)CC2)C1)C1COC1` [Compound 249, 2-((4-(7-(((2S,5R)-5-((N,N-Dimethylsulfamoyl)amino)tetrahydro-2H-pyran-2-yl)methyl)-2,7-diazaspiro[3.5]nonan-2-yl)pyrimidin-5-yl)oxy)-5-fluoro-N-isopropyl-N-(oxetan-3-yl)benzamide]: the “hERG % Remaining 30 μM” value in series [1] was “+++ (“+++” means ≥66%)”. For the same compound, the negative logarithm of the Ki (pKi) in series [2] is greater than 9.00.

As for `CCN(C(=O)c1cc(F)ccc1Oc1cncnc1N1CC2(CCN(C[C@@H]3CC[C@@H](NS(=O)(=O)c4ccccc4Cl)CO3)CC2)C1)C(C)C` [Compound 59, 2-((4-(7-(((2S,5R)-5-((2-Chlorophenyl)sulfonamido)tetrahydro-2H-pyran-2-yl)methyl)-2,7-diazaspiro[3.5]nonan-2-yl)pyrimidin-5-yl)oxy)-N-ethyl-5-fluoro-N-isopropylbenzamide], in series [1], the “hERG % Remaining 10 μM” value was “+ (“+” means <33%)” and the “hERG % Remaining 30 μM” value is “+ (“+” means <33%)”. For the same compound, in series [2], the pEC50 was greater than 7.30 and the pKi is greater than 9.00.

As to `CCN(C(=O)c1cc(F)ccc1Oc1cncnc1N1CC2(CCN(C[C@@H]3CC[C@@H](NC(=O)NCC(F)(F)F)CO3)CC2)C1)C(C)C` [Compound 37, N-ethyl-5-fluoro-N-isopropyl-2-((4-(7-(((2S,5R)-5-(3-(2,2,2-trifluoroethyl)ureido)tetrahydro-2H-pyran-2-yl)methyl)-2,7-diazaspiro[3.5]nonan-2-yl)pyrimidin-5-yl)oxy)benzamide], in series [1], the “hERG % Remaining 10 μM” value was “+ (“+” means <33%)” and the “hERG % Remaining 30 μM” value was “+ (“+” means <33%)”. Besides, in series [2], the negative-log EC50 (pEC50) was greater than 7.30 and the negative-log Ki (pKi) was greater than 9.00.

With `CCS(=O)(=O)N[C@@H]1CC[C@@H](CN2CCC3(CC2)CN(c2ncncc2Oc2ccc(F)cc2C(=O)N(C(C)C)C2CC2)C3)OC1` [Compound 19, N-cyclopropyl-2-((4-(7-(((2S,5R)-5-(ethylsulfonamido)tetrahydro-2H-pyran-2-yl)methyl)-2,7-diazaspiro[3.5]nonan-2-yl)pyrimidin-5-yl)oxy)-5-fluoro-N-isopropylbenzamide], in series [1], the “hERG % Remaining 10 μM” value was “+++ (“+++” means ≥66%)”; the “hERG % Remaining 30 μM” value is “++ (“++” means ≥33% and <66%)”. Also, in series [2], the pEC50 was greater than 7.30 and the pKi is greater than 9.00.

`CCN(C(=O)c1cc(F)ccc1Oc1cncnc1N1CC2(CCN(C[C@@H]3CC[C@@H](NS(=O)(=O)c4c[nH]c(=O)cc4C)CO3)CC2)C1)C(C)C` [Compound 75, N-Ethyl-5-fluoro-N-isopropyl-2-((4-(7-(((2S,5R)-5-((4-methyl-6-oxo-1,6-dihydropyridine)-3-sulfonamido)tetrahydro-2H-pyran-2-yl)methyl)-2,7-diazaspiro[3.5]nonan-2-yl)pyrimidin-5-yl)oxy)benzamide]: the “hERG % Remaining 30 μM” value in series [1] is “+++ (“+++” means ≥66%)”. Also, the pKi in series [2] was greater than 9.00.

As to `CCS(=O)(=O)N[C@@H]1CC[C@@H](CN2CCC3(CC2)CN(c2ncncc2Oc2ccc(F)cc2C(=O)N(C(C)C)[C@@H]2CC[C@@H]2O)C3)OC1` [Compound 258, 2-((4-(7-(((2S,5R)-5-(Ethylsulfonamido)tetrahydro-2H-pyran-2-yl)methyl)-2,7-diazaspiro[3.5]nonan-2-yl)pyrimidin-5-yl)oxy)-5-fluoro-N-((1R,2S)-2-hydroxycyclobutyl)-N-isopropylbenzamide], in series [1], the “hERG % Remaining 10 μM” value was “+++ (“+++” means ≥66%)”; the “hERG % Remaining 30 μM” value was “++ (“++” means ≥33% and <66%)”. Also, in series [2], the negative logarithm of the EC50 (pEC50) was greater than 7.30 and the negative logarithm of the Ki (pKi) is greater than 9.00.

Take `CC(C)N(C(=O)c1cc(F)ccc1Oc1cncnc1N1CC2(CCN(C[C@@H]3CC[C@@H](NS(=O)(=O)C(C)C)CO3)CC2)C1)C(C)C` [Compound 14, 5-fluoro-N,N-diisopropyl-2-((4-(7-(((2S,5R)-5-((1-methylethyl)sulfonamido)tetrahydro-2H-pyran-2-yl)methyl)-2,7-diazaspiro[3.5]nonan-2-yl)pyrimidin-5-yl)oxy)benzamide]: in series [1], the “hERG % Remaining 3 μM” value is “+++ (“+++” means ≥66%)”; the “hERG % Remaining 10 μM” value is listed as “+++ (“+++” means ≥66%)”; the “hERG % Remaining 30 μM” value was “++ (“++” means ≥33% and <66%)”; the “hERG % Remaining 100 μM” value is reported as “+ (“+” means <33%)”. The compound further had a pIC50 in series [1] of 4.30 to 4.60. In addition, in series [2], the negative-log EC50 (pEC50) is greater than 7.30 and the pKi is greater than 9.00.

Turning to `CC(C)N(CC(F)F)C(=O)c1cc(F)ccc1Oc1cncnc1N1CC2(CCN(C[C@@H]3CC[C@@H](NS(=O)(=O)NCC4CC4)CO3)CC2)C1` [Compound 148, 2-((4-(7-(((2S,5R)-5-((N-(Cyclopropylmethyl)sulfamoyl)amino)tetrahydro-2H-pyran-2-yl)methyl)-2,7-diazaspiro[3.5]nonan-2-yl)pyrimidin-5-yl)oxy)-N-(2,2-difluoroethyl)-5-fluoro-N-isopropylbenzamide], in series [1], the “hERG % Remaining 30 μM” value is listed as “+++ (“+++” means ≥66%)”. Also, the pKi in series [2] was greater than 9.00.

Consider `CC(C)N(C(=O)c1cc(F)ccc1Oc1cncnc1N1CC2(CCN(C[C@@H]3CC[C@@H](NS(N)(=O)=O)CO3)CC2)C1)C(C)C` [Compound 90, 5-Fluoro-N,N-diisopropyl-2-((4-(7-(((2S,5R)-5-(sulfamoylamino)tetrahydro-2H-pyran-2-yl)methyl)-2,7-diazaspiro[3.5]nonan-2-yl)pyrimidin-5-yl)oxy)benzamide], for which, in series [1], the “hERG % Remaining 10 μM” value is reported as “+++ (“+++” means ≥66%)” and the “hERG % Remaining 30 μM” value is on record as “+++ (“+++” means ≥66%)”. The pKi in series [2] was greater than 9.00.

As to `Cc1nc(S(=O)(=O)N[C@@H]2CC[C@@H](CN3CCC4(CC3)CN(c3ncncc3Oc3ccc(F)cc3C(=O)N(C(C)C)C(C)C)C4)OC2)co1` [Compound 91, 5-Fluoro-N,N-diisopropyl-2-((4-(7-(((2S,5R)-5-((2-methyloxazole)-4-sulfonamido)tetrahydro-2H-pyran-2-yl)methyl)-2,7-diazaspiro[3.5]nonan-2-yl)pyrimidin-5-yl)oxy)benzamide], the “hERG % Remaining 30 μM” value in series [1] is “++ (“++” means ≥33% and <66%)”. Also, the pKi in series [2] is greater than 9.00.

For `CC(C)N(CC(F)F)C(=O)c1cc(F)ccc1Oc1cncnc1N1CC2(CCN(C[C@@H]3CC[C@@H](NS(=O)(=O)N4CCOCC4)CO3)CC2)C1` [Compound 94, N-(2,2-Difluoroethyl)-5-fluoro-N-isopropyl-2-((4-(7-(((2S,5R)-5-(morpholine-4-sulfonamido)tetrahydro-2H-pyran-2-yl)methyl)-2,7-diazaspiro[3.5]nonan-2-yl)pyrimidin-5-yl)oxy)benzamide], in series [1], the “hERG % Remaining 10 μM” value was “+++ (“+++” means ≥66%)”; the “hERG % Remaining 30 μM” value is “++ (“++” means ≥33% and <66%)”. Moreover, in series [2], the negative logarithm of the EC50 (pEC50) is greater than 7.30 and the pKi was greater than 9.00.

Turning to `CCN(C(=O)c1cc(F)ccc1Oc1cncnc1N1CC2(CCN(C[C@@H]3CC[C@@H](NC(=O)OC(C)(C)C)CO3)CC2)C1)C(C)C` [Compound 11, tert-butyl ((3R,6S)-6-((2-(5-(2-(ethyl(isopropyl)carbamoyl)-4-fluorophenoxy)pyrimidin-4-yl)-2,7-diazaspiro[3.5]nonan-7-yl)methyl)tetrahydro-2H-pyran-3-yl)carbamate], in series [1], the “hERG % Remaining 10 μM” value is recorded as “+ (“+” means <33%)” and the “hERG % Remaining 30 μM” value is reported as “+ (“+” means <33%)”. Further, in series [2], the pEC50 was greater than 7.30 and the pKi was greater than 9.00.
